The subject of the test is Radical scavenging activity. Description: Antioxidant activity assessed as DPPH radical scavenging activity by DPPH method. It counts as functional. Also noted: concentration or dose not given beside the values.

With `COc1ccc(/C=C/c2cc(=O)c3cc(Br)ccc3o2)cc1`, the Activity was found to be 60.9%. For `O=c1cc(/C=C/c2ccccc2)oc2cc(I)ccc12` the value was 65%; for `COc1ccc(/C=C/c2cc(=O)c3ccc(I)cc3o2)cc1`, 66.8%; for `C/C(=C\c1cc(=O)c2ccccc2o1)c1ccccc1`, 65.8%. As for `C/C(=C\c1cc(=O)c2cc(Cl)c(I)cc2o1)c1ccccc1`, the figure is 71.4%. For `O=c1cc(/C=C/c2ccccc2)oc2ccccc12`, the Activity stood at 64.4%. As for `COc1ccc(/C=C/c2cc(=O)c3c(O)cccc3o2)cc1`, the Activity turned out to be 71.1%. `COc1ccc(/C=C/c2cc(=O)c3cc(Cl)c(I)cc3o2)cc1`: the Activity is 69.1%. With `C/C(=C\c1cc(=O)c2ccc(I)cc2o1)c1ccccc1`, the Activity came out at 69.6%. In the case of `O=c1cc(/C=C/c2ccccc2)oc2cc(I)c(Cl)cc12`, the Activity worked out at 67.2%.

Values taken from ChEMBL document CHEMBL3046320, “Synthesis and evaluation of antioxidant activity of 2-styrylchromones” (Med Chem Res, 2013).
